In patent US11951108B2, “Combination therapy for treating cancer” (Epizyme, Inc., priority 2016, dated 2024):
Like-named read-outs stand apart in the source and are kept apart here. Each block holds one compound with its values, some of them ahead of it.

Tests used:
[1] = system: A2780; test: In vitro combination study, ovarian cancer cell line A2780
[2] = system: BT549; test: In vitro combination study, breast cancer cell line BT549; settings: ER/PR −/−, HER2 −, 7 day pre-treatment + 6 day co-treatment
[3] = system: HCC1419; test: In vitro combination study, breast cancer cell line HCC1419; settings: ER/PR −/−, HER2 +, 7 day pre-treatment + 6 day co-treatment
[4] = system: SUM159PT; test: In vitro combination study, breast cancer cell line SUM159PT; settings: ER/PR −/−, HER2 −, 7 day pre-treatment + 6 day co-treatment
[5] = system: MDA-MB-175VII; test: In vitro combination study, breast cancer cell line MDA-MB-175VII; settings: ER/PR +/+, HER2 +, 7 day pre-treatment + 6 day co-treatment
[6] = system: TOV21G; test: In vitro combination study, ovarian cancer cell line TOV21G; type: cell-based; settings: 4+3 model
[7] = system: CAOV-3; test: In vitro combination study, ovarian cancer cell line CAOV-3; type: cell-based; settings: 4+3 model
[8] = system: COV504
[9] = system: OVISE; test: In vitro combination study, ovarian cancer cell line OVISE; settings: OVISE; 4+3 model
[10] = system: OV-90; test: In vitro combination study, ovarian cancer cell line OV-90; settings: OV-90; 4+3 model
[11] = system: SKOV3; test: In vitro combination study, ovarian cancer cell line SKOV3; settings: 4+3 model
[12] = system: OVMANA; test: In vitro combination study, ovarian cancer cell line OVMANA; settings: OVMANA; 4+3 model
[13] = system: COV362; test: In vitro combination study, ovarian cancer cell line COV362; settings: COV362; 4+3 model
[14] = system: OVSAHO; test: In vitro combination study, ovarian cancer cell line OVSAHO; settings: 4+3 model
[15] = system: JH)S-4; test: In vitro combination study, ovarian cancer cell line JH)S-4; settings: 4+3 model
[16] = system: COV644*; test: In vitro combination study, ovarian cancer cell line COV644; settings: COV644*; 7+3 model
[17] = system: SNU840; test: In vitro combination study, ovarian cancer cell line SNU840; settings: SNU840; 4+3 model
[18] = system: TOV112D; test: In vitro combination study, ovarian cancer cell line TOV112D; settings: 4+3 model
[19] = system: KURAMOCHI; test: In vitro combination study, ovarian cancer cell line KURAMOCHI; settings: KURAMOCHI; 4+3 model
[20] = system: RMUGS*; test: In vitro combination study, ovarian cancer cell line RMUGS; settings: 7+3 model
[21] = system: CAMA-1; test: In vitro combination study, breast cancer cell line CAMA-1; type: cell-based; settings: ER/PR +/−, HER2 +, 7 day pre-treatment + 6 day co-treatment
[22] = system: BT474; test: In vitro combination study, breast cancer cell line BT474; settings: ER/PR +/+, HER2 +, 7 day pre-treatment + 6 day co-treatment
[23] = system: DU4475; test: In vitro combination study, breast cancer cell line DU4475; settings: ER/PR −/−, HER2 −, 7 day pre-treatment + 6 day co-treatment
[24] = system: ES-2; test: In vitro combination study, ovarian cancer cell line ES-2; settings: 4+3 model
[25] = system: SUM52PE; test: In vitro combination study, breast cancer cell line SUM52PE; settings: ER/PR −/−, HER2 −, 7 day pre-treatment + 6 day co-treatment

- Synergy or antagonism of second agent with tazemetostat (IC50 shift of second agent) [2]: A (Antagonism)
- Synergy or antagonism of second agent with tazemetostat (IC50 shift of second agent) [3]: C (Synergy > 2× IC50 shift)
- Synergy or antagonism of second agent with tazemetostat (IC50 shift of second agent) [4]: C (Synergy > 2× IC50 shift)
- Synergy or antagonism of second agent with tazemetostat (IC50 shift of second agent) [5]: C (Synergy > 2× IC50 shift)
Compound: CO[C@H]1C[C@@H]2CC[C@@H](C)[C@@](O)(O2)C(=O)C(=O)N2CCCC[C@H]2C(=O)O[C@H]([C@H](C)C[C@@H]2CC[C@@H](OCCO)[C@H](OC)C2)CC(=O)[C@H](C)/C=C(\C)[C@@H](O)[C@@H](OC)C(=O)[C@H](C)C[C@H](C)/C=C/C=C/C=C/1C [Everolimus]

- Synergy or antagonism of second agent with tazemetostat (IC50 shift of second agent) ([1]; A2780, 4+3 model): C (Synergy > 2× IC50 shift)
- Synergy or antagonism of second agent with tazemetostat (IC50 shift of second agent) [18]: C (Synergy > 2× IC50 shift)
Compound: CC1(C)CCC(CN2CCN(c3ccc(C(=O)NS(=O)(=O)c4ccc(NCC5CCOCC5)c([N+](=O)[O-])c4)c(Oc4cnc5[nH]ccc5c4)c3)CC2)=C(c2ccc(Cl)cc2)C1 [ABT199]

- Synergy or antagonism of second agent with tazemetostat (IC50 shift of second agent) [21]: A (Antagonism)
Compound: CCc1cnn2c(NCc3ccc[n+]([O-])c3)cc(N3CCCC[C@H]3CCO)nc12 [Dinaciclib]

- Synergy or antagonism of second agent with tazemetostat (IC50 shift of second agent) [21]: C (Synergy > 2× IC50 shift)
- Synergy or antagonism of second agent with tazemetostat (IC50 shift of second agent) [22]: B (Synergy > 4× IC50 shift)
- Synergy or antagonism of second agent with tazemetostat (IC50 shift of second agent) [23]: A (Antagonism)
Compound: Cc1cc(Nc2ccc(NC(=O)c3ccc(Nc4ccnc5ccccc45)cc3)cc2)nc(N)n1 [SGI1027]

- Synergy or antagonism of second agent with tazemetostat (IC50 shift of second agent) [24]: A (Antagonism)
Compound: Cc1ccc(NC(=O)c2ccc(CN3CCN(C)CC3)cc2)cc1Nc1nccc(-c2cccnc2)n1 [Imatinib]

- Synergy or antagonism of second agent with tazemetostat (IC50 shift of second agent) [21]: C (Synergy > 2× IC50 shift)
- Synergy or antagonism of second agent with tazemetostat (IC50 shift of second agent) [25]: C (Synergy > 2× IC50 shift)
- Synergy or antagonism of second agent with tazemetostat (IC50 shift of second agent) [3]: C (Synergy > 2× IC50 shift)
Compound: NC(=O)c1ccc(I)c([N+](=O)[O-])c1 [Iniparib (BSI 201), Iniparib]

- Synergy or antagonism of second agent with tazemetostat (IC50 shift of second agent) [24]: C (Synergy > 2× IC50 shift)
Compound: CCCS(=O)(=O)Nc1ccc(F)c(C(=O)c2c[nH]c3ncc(-c4ccc(Cl)cc4)cc23)c1F [Vemurafenib]

Second part, the compound before the results:

Compound: AZD5363
- Synergy or antagonism of second agent with tazemetostat (IC50 shift of second agent) [1]: B (key: B: Synergy > 4× IC50 shift; Synergy > 2× IC50 shift; No Effect; Antagonism; X: Not Tested)

Compound: O=C(c1cc(Cc2n[nH]c(=O)c3ccccc23)ccc1F)N1CCN(C(=O)C2CC2)CC1 [Olaparib]
- Synergy or antagonism of second agent with tazemetostat (IC50 shift of second agent) ([1]; A2780, 4+3 model): B (Synergy > 4× IC50 shift)
- Synergy or antagonism of second agent with tazemetostat (IC50 shift of second agent) [4]: C (Synergy > 2× IC50 shift)

Compound: Cc1[nH]c2ccccc2c1CCNCc1ccc(/C=C/C(=O)NO)cc1 [Panobinostat]
- Synergy or antagonism of second agent with tazemetostat (IC50 shift of second agent) [6]: C (Synergy > 2× IC50 shift)
- Synergy or antagonism of second agent with tazemetostat (IC50 shift of second agent) [7]: C (Synergy > 2× IC50 shift)
- Synergy or antagonism of second agent with tazemetostat (IC50 shift of second agent) ([8]; COV504, 4+3 model): B (Synergy > 4× IC50 shift)
- Synergy or antagonism of second agent with tazemetostat (IC50 shift of second agent) [9]: C (Synergy > 2× IC50 shift)
- Synergy or antagonism of second agent with tazemetostat (IC50 shift of second agent) [10]: C (Synergy > 2× IC50 shift)
- Synergy or antagonism of second agent with tazemetostat (IC50 shift of second agent) [11]: B (Synergy > 4× IC50 shift)
- Synergy or antagonism of second agent with tazemetostat (IC50 shift of second agent) ([1]; A2780, 4+3 model): B (Synergy > 4× IC50 shift)
- Synergy or antagonism of second agent with tazemetostat (IC50 shift of second agent) [12]: C (Synergy > 2× IC50 shift)
- Synergy or antagonism of second agent with tazemetostat (IC50 shift of second agent) [13]: C (Synergy > 2× IC50 shift)
- Synergy or antagonism of second agent with tazemetostat (IC50 shift of second agent) [14]: C (Synergy > 2× IC50 shift)
- Synergy or antagonism of second agent with tazemetostat (IC50 shift of second agent) [15]: C (Synergy > 2× IC50 shift)
- Synergy or antagonism of second agent with tazemetostat (IC50 shift of second agent) [16]: C (Synergy > 2× IC50 shift)
- Synergy or antagonism of second agent with tazemetostat (IC50 shift of second agent) [17]: C (Synergy > 2× IC50 shift)
- Synergy or antagonism of second agent with tazemetostat (IC50 shift of second agent) [18]: C (Synergy > 2× IC50 shift)
- Synergy or antagonism of second agent with tazemetostat (IC50 shift of second agent) [19]: C (Synergy > 2× IC50 shift)

Compound: C=CCn1c(=O)c2cnc(Nc3ccc(N4CCN(C)CC4)cc3)nc2n1-c1cccc(C(C)(C)O)n1 [MK1775]
- Synergy or antagonism of second agent with tazemetostat (IC50 shift of second agent) [7]: C (Synergy > 2× IC50 shift)
- Synergy or antagonism of second agent with tazemetostat (IC50 shift of second agent) ([8]; COV504, 4+3 model): C (Synergy > 2× IC50 shift)
- Synergy or antagonism of second agent with tazemetostat (IC50 shift of second agent) [20]: B (Synergy > 4× IC50 shift)
- Synergy or antagonism of second agent with tazemetostat (IC50 shift of second agent) [11]: C (Synergy > 2× IC50 shift)
- Synergy or antagonism of second agent with tazemetostat (IC50 shift of second agent) ([1]; A2780, 4+3 model): B (Synergy > 4× IC50 shift)
- Synergy or antagonism of second agent with tazemetostat (IC50 shift of second agent) [15]: C (Synergy > 2× IC50 shift)
- Synergy or antagonism of second agent with tazemetostat (IC50 shift of second agent) [16]: B (Synergy > 4× IC50 shift)
- Synergy or antagonism of second agent with tazemetostat (IC50 shift of second agent) [18]: C (Synergy > 2× IC50 shift)
- Synergy or antagonism of second agent with tazemetostat (IC50 shift of second agent) [19]: C (Synergy > 2× IC50 shift)

Compound: C/C=C1\NC(=O)[C@H]2CSSCC/C=C/[C@H](CC(=O)N[C@H](C(C)C)C(=O)N2)OC(=O)[C@H](C(C)C)NC1=O [Romidepsin]
- Synergy or antagonism of second agent with tazemetostat (IC50 shift of second agent) [8]: C (key: B: Synergy > 4× IC50 shift; Synergy > 2× IC50 shift; No Effect; Antagonism; X: Not Tested)
- Synergy or antagonism of second agent with tazemetostat (IC50 shift of second agent) [13]: C (Synergy > 2× IC50 shift)

Compound: N.N.O=C([O-])C1(C(=O)[O-])CCC1.[Pt+2] [Carboplatin]
- Synergy or antagonism of second agent with tazemetostat (IC50 shift of second agent) ([1]; A2780, 4+3 model): B (Synergy > 4× IC50 shift)

Compound: Nc1ccn([C@@H]2O[C@H](CO)[C@@H](O)C2(F)F)c(=O)n1 [Gemcitabine]
- Synergy or antagonism of second agent with tazemetostat (IC50 shift of second agent) ([8]; COV504, 4+3 model): C (Synergy > 2× IC50 shift)
- Synergy or antagonism of second agent with tazemetostat (IC50 shift of second agent) [20]: B (Synergy > 4× IC50 shift)
- Synergy or antagonism of second agent with tazemetostat (IC50 shift of second agent) [11]: C (Synergy > 2× IC50 shift)
- Synergy or antagonism of second agent with tazemetostat (IC50 shift of second agent) ([1]; A2780, 4+3 model): B (Synergy > 4× IC50 shift)
- Synergy or antagonism of second agent with tazemetostat (IC50 shift of second agent) [3]: C (Synergy > 2× IC50 shift)

Compound: Cc1nc(NC(=O)N2CCC[C@H]2C(N)=O)sc1-c1ccnc(C(C)(C)C(F)(F)F)c1 [BYL719]
- Synergy or antagonism of second agent with tazemetostat (IC50 shift of second agent) [7]: C (Synergy > 2× IC50 shift)
- Synergy or antagonism of second agent with tazemetostat (IC50 shift of second agent) ([8]; COV504, 4+3 model): B (Synergy > 4× IC50 shift)
- Synergy or antagonism of second agent with tazemetostat (IC50 shift of second agent) [9]: C (Synergy > 2× IC50 shift)
- Synergy or antagonism of second agent with tazemetostat (IC50 shift of second agent) [11]: C (Synergy > 2× IC50 shift)
- Synergy or antagonism of second agent with tazemetostat (IC50 shift of second agent) ([1]; A2780, 4+3 model): B (Synergy > 4× IC50 shift)
- Synergy or antagonism of second agent with tazemetostat (IC50 shift of second agent) [16]: C (Synergy > 2× IC50 shift)
- Synergy or antagonism of second agent with tazemetostat (IC50 shift of second agent) [17]: B (Synergy > 4× IC50 shift)
- Synergy or antagonism of second agent with tazemetostat (IC50 shift of second agent) [18]: C (Synergy > 2× IC50 shift)

Compound: CS(=O)(=O)N1CCN(Cc2cc3nc(-c4cccc5[nH]ncc45)nc(N4CCOCC4)c3s2)CC1 [Pictilisib]
- Synergy or antagonism of second agent with tazemetostat (IC50 shift of second agent) [7]: C (Synergy > 2× IC50 shift)
- Synergy or antagonism of second agent with tazemetostat (IC50 shift of second agent) ([1]; A2780, 4+3 model): C (Synergy > 2× IC50 shift)
- Synergy or antagonism of second agent with tazemetostat (IC50 shift of second agent) [12]: C (Synergy > 2× IC50 shift)
- Synergy or antagonism of second agent with tazemetostat (IC50 shift of second agent) [16]: C (Synergy > 2× IC50 shift)
- Synergy or antagonism of second agent with tazemetostat (IC50 shift of second agent) [17]: C (Synergy > 2× IC50 shift)

Compound: COc1cc2c(Oc3ccc4[nH]c(C)cc4c3F)ncnc2cc1OCCCN1CCCC1 [AZD2171]
- Synergy or antagonism of second agent with tazemetostat (IC50 shift of second agent) ([8]; COV504, 4+3 model): B (Synergy > 4× IC50 shift)
- Synergy or antagonism of second agent with tazemetostat (IC50 shift of second agent) [20]: C (Synergy > 2× IC50 shift)
- Synergy or antagonism of second agent with tazemetostat (IC50 shift of second agent) ([1]; A2780, 4+3 model): C (Synergy > 2× IC50 shift)
- Synergy or antagonism of second agent with tazemetostat (IC50 shift of second agent) [16]: C (Synergy > 2× IC50 shift)
- Synergy or antagonism of second agent with tazemetostat (IC50 shift of second agent) [19]: C (Synergy > 2× IC50 shift)
